From patent US12084436B2, “Heterocyclic compound” (Takeda Pharmaceutical Company Limited, priority 2019, dated 2024)

Target: T1, HDAC6 enzyme (Homo sapiens, UniProt Q9UBN7)
T1 construct: prepared by transducing full length HDAC6 gene into Sf-9 insect cells; GST; purchased SignalChem; host or cells: Sf-9 insect cells
T1 sequence (Q9UBN7 1-1215): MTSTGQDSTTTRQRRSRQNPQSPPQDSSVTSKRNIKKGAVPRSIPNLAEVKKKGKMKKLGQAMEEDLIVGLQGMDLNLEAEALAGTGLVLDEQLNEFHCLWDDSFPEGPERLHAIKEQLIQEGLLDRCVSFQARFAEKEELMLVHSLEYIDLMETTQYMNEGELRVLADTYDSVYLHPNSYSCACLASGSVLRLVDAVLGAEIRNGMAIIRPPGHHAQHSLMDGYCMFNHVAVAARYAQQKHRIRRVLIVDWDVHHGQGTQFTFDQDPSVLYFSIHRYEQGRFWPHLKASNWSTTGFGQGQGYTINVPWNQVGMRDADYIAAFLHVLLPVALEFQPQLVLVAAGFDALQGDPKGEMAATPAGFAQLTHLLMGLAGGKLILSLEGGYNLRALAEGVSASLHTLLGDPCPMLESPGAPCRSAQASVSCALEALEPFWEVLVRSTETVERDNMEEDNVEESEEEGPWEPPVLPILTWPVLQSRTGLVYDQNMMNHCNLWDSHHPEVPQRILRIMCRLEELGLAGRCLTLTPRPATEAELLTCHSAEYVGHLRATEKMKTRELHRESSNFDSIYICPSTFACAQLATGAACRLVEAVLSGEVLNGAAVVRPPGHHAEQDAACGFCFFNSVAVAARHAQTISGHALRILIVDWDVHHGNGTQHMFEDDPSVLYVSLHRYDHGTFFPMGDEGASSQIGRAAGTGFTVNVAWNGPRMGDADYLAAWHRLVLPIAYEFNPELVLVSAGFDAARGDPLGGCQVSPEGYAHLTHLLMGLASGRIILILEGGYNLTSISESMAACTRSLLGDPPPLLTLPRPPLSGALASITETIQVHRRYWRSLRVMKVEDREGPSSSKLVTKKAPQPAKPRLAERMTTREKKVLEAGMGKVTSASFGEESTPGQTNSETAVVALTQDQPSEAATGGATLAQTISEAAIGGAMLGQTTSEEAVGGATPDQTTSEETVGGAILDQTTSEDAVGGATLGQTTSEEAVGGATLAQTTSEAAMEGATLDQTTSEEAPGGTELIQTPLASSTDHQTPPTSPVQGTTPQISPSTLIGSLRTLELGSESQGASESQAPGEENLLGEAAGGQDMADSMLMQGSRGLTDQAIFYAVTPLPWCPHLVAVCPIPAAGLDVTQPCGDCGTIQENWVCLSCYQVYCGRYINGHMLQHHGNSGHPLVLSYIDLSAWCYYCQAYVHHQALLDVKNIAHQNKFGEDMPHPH
Assay: HDAC6 enzyme inhibitory assay (HDAC-Glo I/II Assay kit, luminescence)
Type: biochemical
Conditions: 10 μM test compound, wells without enzyme = 100% inhibition; for inhibition at 10 µM: read-out: HDAC6 inhibitory rate (%) (10 μM)
Method: HDAC6 Enzyme Inhibitory Assay
HDAC6 enzyme prepared by transducing full length HDAC6 gene into Sf-9 insect cells and purifying by GST affinity column were purchased from SignalChem. Using this enzyme, HDAC6 enzyme inhibitory activities of the compound of the present invention were evaluated. Enzymes were used after preserved at −70° C. HDAC6 enzyme inhibitory activity of the compound of the present invention was measured using HDAC-Glo™ I/II Assay kit (Promega) according to the following experimental method. The test compound diluted with assay buffer (24 mM Tris-HCl (pH 7.5), 1 mM MgCl2, 0.35 mM KCl, 135 mM NaCl, 0.6 mM Glutathione, 0.01% Tween-20) was added to a 384-well plate by each 2 μL. Then, HDAC6 enzyme solution diluted with assay buffer was added thereto by each 4 μL, and the plate was incubated at room temperature for 60 min. After incubated, HDAC substrate-Developer solution prepared according to Promega protocol attached to the assay kit was added to the 384-well plate by each 2 μL, and the enzyme reaction was started. After reacting at room temperature for 20 min, luminescence level was measured using plate reader Envision (PerkinElmer). The inhibitory activity of each compound of Example was calculated as a relative activity value when luminescence level in wells without enzyme is considered as 100% inhibition.

SMILES | HDAC6 inhibitory rate (%) (10 μM) | inhibition at 10 µM [%]
CN1C(=O)c2cc(-c3nnc(C(F)F)o3)cnc2CC1(C)c1ccc(F)cc1 (single isomer, unassigned) [Example 1b, 3-[5-(difluoromethyl)-1,3,4-oxadiazol-2-yl]-7-(4-fluorophenyl)-6,7-dimethyl-7,8-dihydro-1,6-naphthyridin-5(6H)-one] | 100 | –
CN1C(=O)c2cc(-c3nnc(C(F)F)o3)ccc2OC1(C)c1ccc(F)cc1 (single isomer, unassigned; isomer 1) [Example 8b, 6-[5-(difluoromethyl)-1,3,4-oxadiazol-2-yl]-2-(4-fluorophenyl)-2,3-dimethyl-2,3-dihydro-4H-1,3-benzoxazin-4-one (Optical Isomer 1)] | – | 100
CN1C(=O)c2cc(-c3nnc(C(F)F)o3)ccc2CC1(C)c1ccc(F)cc1 (single isomer, unassigned; isomer 1) [Example 23b, 7-[5-(difluoromethyl)-1,3,4-oxadiazol-2-yl]-3-(4-fluorophenyl)-2,3-dimethyl-3,4-dihydroisoquinolin-1(2H)-one (optical isomer 1)] | 58 | –
CN1C(=O)c2cc(-c3nnc(C(F)F)o3)cnc2CC1(C)c1ccc(F)cc1 (single isomer, unassigned; isomer 1) [Example 27b, 3-[5-(difluoromethyl)-1,3,4-oxadiazol-2-yl]-7-(4-fluorophenyl)-6,7-dimethyl-7,8-dihydro-1,6-naphthyridin-5(6H)-one (optical isomer 1)] | 56 | –
CN1C(=O)c2cc(-c3nnc(C(F)F)o3)ccc2OC1(C)c1ccc(C#N)cc1 (single isomer, unassigned; isomer 1) [Example 36b, 4-{6-[5-(difluoromethyl)-1,3,4-oxadiazol-2-yl]-2,3-dimethyl-4-oxo-3,4-dihydro-2H-1,3-benzoxazin-2-yl}benzonitrile (optical isomer 1)] | 62 | –
CN1C(=O)c2cc(-c3nnc(C(F)F)o3)cnc2CC1(C)c1ccc(F)c(F)c1 (single isomer, unassigned; isomer 1) [Example 39b, 3-[5-(difluoromethyl)-1,3,4-oxadiazol-2-yl]-7-(3,4-difluorophenyl)-6,7-dimethyl-7,8-dihydro-1,6-naphthyridin-5(6H)-one (optical isomer 1)] | 76 | –
CN1C(=O)c2cc(-c3nnc(C(F)F)o3)ccc2CC1c1ccc(F)cc1 (single isomer, unassigned; isomer 1) [Example 41b, 7-[5-(difluoromethyl)-1,3,4-oxadiazol-2-yl]-3-(4-fluorophenyl)-2-methyl-3,4-dihydroisoquinolin-1(2H)-one (Optical Isomer 1)] | – | 99
CN1C(=O)c2cc(-c3nnc(C(F)F)o3)ccc2OC1(C)c1ccc(F)cc1 (single isomer, unassigned; isomer 2) [Example 9b, 6-[5-(difluoromethyl)-1,3,4-oxadiazol-2-yl]-2-(4-fluorophenyl)-2,3-dimethyl-2,3-dihydro-4H-1,3-benzoxazin-4-one (optical isomer 2)] | 96 | –
CN1C(=O)c2cc(-c3nnc(C(F)F)o3)ccc2CC1(C)c1ccc(F)cc1 (single isomer, unassigned; isomer 2) [Example 24b, 7-[5-(difluoromethyl)-1,3,4-oxadiazol-2-yl]-3-(4-fluorophenyl)-2,3-dimethyl-3,4-dihydroisoquinolin-1(2H)-one (optical isomer 2)] | 99 | –
CN1C(=O)c2cc(-c3nnc(C(F)F)o3)ccc2OC1(C)c1ccc(C#N)cc1 (single isomer, unassigned; isomer 2) [Example 37b, 4-{6-[5-(difluoromethyl)-1,3,4-oxadiazol-2-yl]-2,3-dimethyl-4-oxo-3,4-dihydro-2H-1,3-benzoxazin-2-yl}benzonitrile (optical isomer 2)] | 100 | –
